{"source": "paper PMC4821887", "about": "“Identification of chemicals that mimic transcriptional changes associated with autism, brain aging and neurodegeneration” (Nature Communications, 2016)", "key": {"[1]": {"system": "mouse cortical neuron-enriched cultures", "experiment": "RNA-seq transcriptional screen with hierarchical clustering and cluster membership", "format": "cell-based", "conditions": "for Chemical cluster assigned by gene expression: 24 h at non-toxic concentration, hierarchical clustering of 5,121 variably expressed genes", "procedure": "(§1) Cultures were treated with the non-cytotoxic dose of each chemical, by exchanging half of the original medium with chemicals at 2 × concentration in prewarmed feeding medium, on DIV 7 for 24 h in 12-well plates at a density of 5 × 10^5 cells per well. RNA was isolated using RNeasy plus mini kit (Cat. #74134, Qiagen). RNA yield and quality were determined using a Nanodrop 1000 Spectrophotometer (Thermo Scientific). Samples were further assessed for quality using either an Agilent Bioanalyzer 2100 or TapeStation 2200 to obtain a RIN. RIN values exceeding 7 were used for sequencing. RNA samples were used to generate and barcode complementary DNA libraries using the TruSeq RNA Library Preparation Kit at the UNC High Throughput Sequencing Facility. Pools of 24 multiplexed samples were sequenced per lane on an Illumina HiSeq 2500 using 50-bp paired-end reads.\n(§2) RNA-seq reads were filtered using TagDust and aligned to the reference mouse genome (mm9) with TopHat using default parameters. Reads aligning to ribosomal RNA genes were removed. Transcript abundance was estimated by computing Reads per kilobase per million mapped reads (RPKM) using RefSeq gene models aggregated by gene symbol. For differential expression analyses, raw counts over RefSeq exons were used, and then were compared across samples using DESeq[62].\nRPKMs for all RefSeq genes and all samples were filtered such that a given gene had >90% of samples with RPKM >0 and gene length exceeded 500 bp. RPKMs were then log10-transformed, quantile-normalized, median-centred, and the effects due to culture or sequencing batch were removed using a mixed model analysis of variance. This batch correction step was performed on individual experiments rather than chemical–vehicle ratios to reduce the effects due to variations in culture composition as well as batch-to-batch variations at the level of sequencing. Genes were then median-centred again, and filtered such that their s.d. exceeded 0.1. Chemical replicates were then combined using the median. Classes of chemicals were then discovered in two ways. First, we performed hierarchical clustering using average linkage and Pearson correlation distance measures. The boundaries of the discovered classes from clustering were set by computing pairwise Spearman correlations for all samples. A given cluster had to have at least three members with the minimum pairwise Spearman correlation coefficient exceeding 0.2, though cluster members often exceeded a correlation of 0.6 (Supplementary Fig. 5c,d). Seven chemical clusters were discovered, however one was removed due to failing to have a positive silhouette width, a metric of cluster robustness. These definitions enabled the three positive control topoisomerase inhibitors to form a cohesive group of chemicals with known structural and functional similarity (cluster 5). None of the culture or sequencing batches contributed to the formation of any one of the final six clusters (Supplementary Fig. 4)."}, "[2]": {"system": "mitochondrial superoxide in cortical neurons", "experiment": "Mitochondrial superoxide detection (MitoSOX Red live-cell imaging)", "format": "cell-based, mouse", "conditions": "pretreatment 18 h, two concentrations; fenamidone 10 μM, 2 h"}, "cortical neurons": {"system": "cortical neurons", "experiment": "Soma morphology (proportion of cells with altered soma morphology) in live-cell imaging", "format": "cell-based, mouse", "conditions": "pretreatment 18 h, two concentrations; fenamidone 10 μM, 2 h"}, "humans": {"system": "humans", "conditions": "cited from earlier work"}, "rats": {"system": "rats", "conditions": "lowest dose tested; cited from earlier work"}, "mouse cortical cultures": {"system": "mouse cortical cultures", "experiment": "RNA-seq differential expression (DESeq) against matched vehicle", "format": "cell-based", "conditions": "24 h", "procedure": "Figure 4 Cluster 2 chemicals alter expression of a common set of genes. […] RNA-seq was performed in quadruplicate after treating cortical cultures with fenamidone (10 μM) or pyraclostrobin (0.1 μM) for 24 h (n=3 biological replicates) and compared with matched vehicle controls using DESeq to detect differentially expressed genes, listed in Supplementary Data 4.\nas §1, with “[…].” for “RNA yield and quality were determined using a Nanodrop 1000 Spectrophotometer (Thermo Scientific).”\nas §2"}, "[3]": {"conditions": "cited from earlier work"}, "[4]": {"system": "mouse cortical neuron cultures"}, "microtubules": {"system": "microtubules", "conditions": "cited from earlier work"}, "cortical neuron cultures": {"system": "cortical neuron cultures", "design": "method as in PMID 25404338", "conditions": "cited from earlier work"}}, "note": "Structures can show the parent of a compound that is named as a salt.", "data": [{"smiles": "C[S+]([O-])CCCCN=C=S", "note": "(racemic) [sulforaphane, DL-sulforophane]", "values": [{"measurement": "Effect of pretreatment on fenamidone-induced transcriptional changes (RNA-seq)", "setting": "[1]; pretreatment 10 μM, 18 h, fenamidone 10 μM, 24 h", "value": "attenuated"}, {"measurement": "Effect of pretreatment on fenamidone-induced O2− production", "setting": "[2]", "value": "attenuated"}, {"measurement": "Effect of pretreatment on fenamidone-induced soma swelling / aberrant morphology", "setting": "cortical neurons", "value": "attenuated"}, {"measurement": "Autism symptoms", "setting": "humans", "value": "substantially reduces autism symptoms"}]}, {"smiles": "CO/C=C(/C(=O)OC)c1ccccc1COc1cccc(C(F)(F)F)n1", "note": "[Picoxystrobin]", "values": [{"measurement": "Acute neurotoxicity (motor activity)", "setting": "rats", "value": "caused acute neurotoxicity (reduced motor activity) at the lowest dose tested"}]}, {"smiles": "COC(=O)N(OC)c1ccccc1COc1ccn(-c2ccc(Cl)cc2)n1", "note": "[pyraclostrobin]", "values": [{"measurement": "Chemical cluster assigned by gene expression", "setting": "[1]", "value": "cluster 2"}, {"measurement": "log2FoldChange, gene Acta2", "setting": "mouse cortical cultures; 0.1 μM, vs vehicle, DESeq", "value": 3.944}, {"measurement": "log2FoldChange, gene Gpnmb", "setting": "mouse cortical cultures; 0.1 μM, vs vehicle, DESeq", "value": 3.288}, {"measurement": "log2FoldChange, gene Hspg2", "setting": "mouse cortical cultures; 0.1 μM, vs vehicle, DESeq", "value": 3.427}, {"measurement": "log2FoldChange, gene Tagln", "setting": "mouse cortical cultures; 0.1 μM, vs vehicle, DESeq", "value": 3.548}, {"measurement": "log2FoldChange, gene Thbs1", "setting": "mouse cortical cultures; 0.1 μM, vs vehicle, DESeq", "value": 3.263}, {"measurement": "Differentially expressed genes (DESeq) compared between the two fungicides", "setting": "mouse cortical cultures; fenamidone 10 μM or pyraclostrobin 0.1 μM", "value": "up- and downregulate a largely overlapping set of genes"}, {"measurement": "Neurotoxicity in a set of assays used by regulatory agencies", "setting": "[3]", "value": "No evidence of neurotoxicity"}]}, {"smiles": "C=C(C)[C@H]1Cc2c(ccc3c2O[C@@H]2COc4cc(OC)c(OC)cc4[C@@H]2C3=O)O1", "note": "[rotenone]", "values": [{"measurement": "Chemical cluster assigned by gene expression", "setting": "[1]", "value": "cluster 2"}, {"measurement": "Non-cytotoxic concentration identified with live/dead assay", "setting": "[4]", "value": 0.01, "unit": "µM"}, {"measurement": "Effect on microtubules", "setting": "microtubules", "value": "destabilizes microtubules"}]}, {"smiles": "CC[C@@]1(O)C(=O)OCc2c1cc1n(c2=O)Cc2cc3c(CN(C)C)c(O)ccc3nc2-1", "note": "[topotecan, Topotecan hydrochloride, reference compound]", "values": [{"measurement": "Chemical cluster assigned by gene expression", "setting": "[1]", "value": "Cluster 5"}, {"measurement": "Spontaneous synaptic activity", "setting": "cortical neuron cultures", "value": "reducing spontaneous synaptic activity"}]}]}
